In US6506772B1, “Substituted [1,2,4]triazolo[1,5a]pyridine derivatives with activity as adenosine receptor ligands” (Hoffmann-La Roche Inc., priority 2000, dated 2003):

Legend:
[1] = target: T1, human adenosine A2A receptor (Homo sapiens, UniProt P29274); assay: Human adenosine A2A receptor [3H]-SCH-58261 binding assay; details: for Ki: affinity to human adenosine A2A receptor, read-out: Ki HA2A; for selectivity (A1/A2a): calculated ratio of the affinity to the HA1 receptor to the HA2a receptor
T1 construct: expressed in transfected cells; host or cells: CHO cells, Semliki Forest virus expression system; membrane preparation

[2] = target: T2, HA1 adenosine receptor (Homo sapiens, UniProt P30542); assay: Human adenosine A1 receptor affinity (Ki hA1); type: binding; details: affinity to human adenosine A1 receptor
T2 sequence (P30542 1-326): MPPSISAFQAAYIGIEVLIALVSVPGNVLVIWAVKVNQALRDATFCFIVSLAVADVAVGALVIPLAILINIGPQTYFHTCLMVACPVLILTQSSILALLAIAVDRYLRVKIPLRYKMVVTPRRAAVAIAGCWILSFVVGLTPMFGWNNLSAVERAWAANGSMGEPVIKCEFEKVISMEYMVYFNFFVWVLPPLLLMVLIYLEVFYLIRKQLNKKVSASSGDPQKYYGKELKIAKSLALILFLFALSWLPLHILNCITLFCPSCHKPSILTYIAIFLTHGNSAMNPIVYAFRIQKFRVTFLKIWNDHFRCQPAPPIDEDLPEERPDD

T1 sequence (P29274 whole entry): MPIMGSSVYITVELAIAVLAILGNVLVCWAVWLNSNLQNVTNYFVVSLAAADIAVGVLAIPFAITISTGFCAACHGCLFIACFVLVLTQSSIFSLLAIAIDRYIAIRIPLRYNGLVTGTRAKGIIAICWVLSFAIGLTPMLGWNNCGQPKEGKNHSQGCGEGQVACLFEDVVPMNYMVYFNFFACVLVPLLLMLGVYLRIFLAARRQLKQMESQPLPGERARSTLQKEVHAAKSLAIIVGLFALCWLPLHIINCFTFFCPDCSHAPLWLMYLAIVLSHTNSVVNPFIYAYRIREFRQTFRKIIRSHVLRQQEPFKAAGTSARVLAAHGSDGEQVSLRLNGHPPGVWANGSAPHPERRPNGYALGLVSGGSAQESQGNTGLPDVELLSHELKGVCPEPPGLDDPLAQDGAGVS

Row | SMILES | Ki [1] [nM] | selectivity (A1/A2a) [1] | Ki [2] [nM]
1 | Nc1cc(C(=O)N2CC=CC2)cc2nc(-c3nccs3)nn12 [Example 281, (5-Amino-2-thiazol-2-yl-[1,2,4]triazolo[1,5-a]pyridin-7-yl)-(2,5-dihydro-pyrrol-1-yl)-methanone] | 83.7 | 51.9 | 4340
2 | C#CCN(C)C(=O)c1cc(N)n2nc(-c3nccs3)nc2c1 [Example 282, 5-Amino-2-thiazol-2-yl-[1,2,4]triazolo[1,5-a]pyridine-7-carboxylic acid methyl-prop-2-ynyl-amide] | 85.2 | 48.5 | 4130
3 | C=CCN(C)C(=O)c1cc(N)n2nc(-c3nccs3)nc2c1 [Example 283, 5-Amino-2-thiazol-2-yl-[1,2,4]triazolo[1,5-a]pyridine-7-carboxylic acid allyl-methyl-amide] | 116 | 27.0 | 3130
4 | CCCN(C)C(=O)c1cc(N)n2nc(-c3nccs3)nc2c1 [Example 284, 5-Amino-2-thiazol-2-yl-[1,2,4]triazolo[1,5-a]pyridine-7-carboxylic acid methyl-propyl-amide] | 132 | 29.5 | 3890
5 | CC(C)N(C)C(=O)c1cc(N)n2nc(-c3nccs3)nc2c1 [Example 285, 5-Amino-2-thiazol-2-yl-[1,2,4]triazolo[1,5-a]pyridine-7-carboxylic acid isopropyl-methyl-amide] | 83.5 | 32.6 | 2720
6 | CC1CCCN1C(=O)c1cc(N)n2nc(-c3nccs3)nc2c1 (stereo not drawn) [Example 286, (5-Amino-2-thiazol-2-yl-[1,2,4]triazolo[1,5-a]pyridin-7-yl)-(2-methyl-pyrrolidin-1-yl)-methanone] | 32.4 | 91.8 | 2970
7 | CCCCN(C)C(=O)c1cc(N)n2nc(-c3nccs3)nc2c1 [Example 287, 5-Amino-2-thiazol-2-yl-[1,2,4]triazolo[1,5-a]pyridine-7-carboxylic acid butyl-methyl-amide] | 142 | 15.4 | 2190
8 | CCN(C(=O)c1cc(N)n2nc(-c3nccs3)nc2c1)C(C)C [Example 288, 5-Amino-2-thiazol-2-yl-[1,2,4]triazolo[1,5-a]pyridine-7-carboxylic acid ethyl-isopropyl-amide] | 66.6 | 21.0 | 1400
9 | Nc1cc(C(=O)N2CCSC2)cc2nc(-c3nccs3)nn12 [Example 289, (5-Amino-2-thiazol-2-yl-[1,2,4]triazolo[1,5-a]pyridin-7-yl)-thiazolidin-3-yl-methanone] | 55.3 | 42.0 | 2320
10 | C=CCN(CC=C)C(=O)c1cc(N)n2nc(-c3nccs3)nc2c1 [Example 290, 5-Amino-2-thiazol-2-yl-[1,2,4]triazolo[1,5-a]pyridine-7-carboxylic acid diallylamide] | 57.6 | 22.2 | 1280
11 | CCCCN(CC)C(=O)c1cc(N)n2nc(-c3nccs3)nc2c1 [Example 291, 5-Amino-2-thiazol-2-yl-[1,2,4]triazolo[1,5-a]pyridine-7-carboxylic acid butyl-ethyl-amide] | 89.5 | 17.2 | 1540
12 | CCCCCN(C)C(=O)c1cc(N)n2nc(-c3nccs3)nc2c1 [Example 292, 5-Amino-2-thiazol-2-yl-[1,2,4]triazolo[1,5-a]pyridine-7-carboxylic acid methyl-pentyl-amide] | 108 | 13.9 | 1510
13 | CN(C)C(=O)c1cc(N)n2nc(-c3ccc(Br)o3)nc2c1 [Example 293, 5-Amino-2-(5-bromo-furan-2-yl)-[1,2,4]triazolo[1,5-a]pyridine-7-carboxylic acid dimethylamide] | 24.1 | 21.9 | 528
14 | Nc1cc(C(=O)N2CC=CCC2)cc2nc(-c3ccc(Br)o3)nn12 [Example 294, [5-Amino-2-(5-bromo-furan-2-yl)-[1,2,4]triazolo[1,5-a]pyridin-7-yl]-(3,6-dihydro-2H-pyridin-1-yl)-methanone] | 4.1 | 35.0 | 143
15 | Nc1cc(C(=O)N2CCCCCC2)cc2nc(-c3ccc(Br)o3)nn12 [Example 296] | 1.7 | 31.0 | 52.7
16 | CCCN(CC1CC1)C(=O)c1cc(N)n2nc(-c3ccc(Br)o3)nc2c1 [Example 298, 5-Amino-2-(5-bromo-furan-2-yl)-[1,2,4]triazolo[1,5-a]pyridine-7-carboxylic acid cyclopropylmethyl-propyl-amide] | 2.2 | 42.7 | 94
17 | CCN1CCN(C(=O)c2cc(N)n3nc(-c4ccc(Br)o4)nc3c2)CC1 [Example 299, [5-Amino-2-(5-bromo-furan-2-yl)-[1,2,4]triazolo[1,5-a]pyridin-7-yl]-(4-ethyl-piperazin-1-yl)-methanone] | 123 | 13.0 | 1600
18 | NC(=O)C1CCN(C(=O)c2cc(N)n3nc(-c4ccc(Br)o4)nc3c2)CC1 [Example 300, 1-[5-Amino-2-(5-bromo-furan-2-yl)-[1,2,4]triazolo[1,5-a]pyridine-7-carbonyl]-piperidine-4-carboxylic acid amide] | 74.7 | 5.2 | 385
19 | CC1CCC(C)N1C(=O)c1cc(N)n2nc(-c3nccs3)nc2c1 (stereo not drawn) [Example 301] | 62.1 | 30.5 | 1900
20 | CC1C=CC(C)N1C(=O)c1cc(N)n2nc(-c3nccs3)nc2c1 (stereo not drawn) [Example 302] | 104 | 19.4 | 2020
21 | CC1CCCC(C)N1C(=O)c1cc(N)n2nc(-c3ccc(Br)o3)nc2c1 (stereo not drawn) [Example 303, [5-Amino-2-(5-bromo-furan-2-yl)-[1,2,4]triazolo[1,5-a]pyridin-7-yl]-(2,6-dimethyl-piperidin-1-yl)-methanone] | 149 | 8.7 | 1300
22 | CC1CN(C(=O)c2cc(N)n3nc(-c4ccc(Br)o4)nc3c2)CC(C)O1 (stereo not drawn) [Example 304, [5-Amino-2-(5-bromo-furan-2-yl)-[1,2,4]triazolo[1,5-a]pyridin-7-yl]-(2,6-dimethyl-morpholin-4-yl)-methanone] | 9.3 | 41.0 | 382
23 | COCCN(CCOC)C(=O)c1cc(N)n2nc(-c3ccc(Br)o3)nc2c1 [Example 305, 5-Amino-2-(5-bromo-furan-2-yl)-[1,2,4]triazolo[1,5-a]pyridine-7-carboxylic acid bis-(2-methoxy-ethyl)-amide] | 5.2 | 26.8 | 139
24 | CCN(Cc1ccccc1)C(=O)c1cc(N)n2nc(-c3ccc(Br)o3)nc2c1 [Example 307, 5-Amino-2-(5-bromo-furan-2-yl)-[1,2,4]triazolo[1,5-a]pyridine-7-carboxylic acid benzyl-ethyl-amide] | 1.7 | 12.5 | 21.2
25 | CN(CCc1ccccn1)C(=O)c1cc(N)n2nc(-c3ccc(Br)o3)nc2c1 [Example 308, 5-Amino-2-(5-bromo-furan-2-yl)-[1,2,4]triazolo[1,5-a]pyridine-7-carboxylic acid methyl-(2-pyridin-2-yl-ethyl)-amide] | 9.8 | 47.2 | 463
26 | CCN(CC)CCN(CC)C(=O)c1cc(N)n2nc(-c3ccc(Br)o3)nc2c1 [Example 309, 5-Amino-2-(5-bromo-furan-2-yl)-[1,2,4]triazolo[1,5-a]pyridine-7-carboxylic acid (2-diethylamino-ethyl)-ethyl-amide] | 49.5 | 9.9 | 488
27 | Nc1cc(C(=O)N2CCN(Cc3ccccc3)CC2)cc2nc(-c3ccc(Br)o3)nn12 [Example 310, [5-Amino-2-(5-bromo-furan-2-yl)-[1,2,4]triazolo[1,5-a]pyridin-7-yl]-(4-benzyl-piperazin-1-yl)-methanone] | 148 | 2.1 | 314
28 | Nc1cc(C(=O)N(CC(F)(F)F)CC(F)(F)F)cc2nc(-c3ccc(Br)o3)nn12 [Example 311, 5-Amino-2-(5-bromo-furan-2-yl)-[1,2,4]triazolo[1,5-a]pyridine-7-carboxylic acid bis-(2,2,2-trifluoro-ethyl)-amide] | 25.8 | 22.3 | 577
29 | Nc1cc(C(=O)N2CC=C(c3ccccc3)CC2)cc2nc(-c3ccc(Br)o3)nn12 [Example 312, [5-Amino-2-(5-bromo-furan-2-yl)-[1,2,4]triazolo[1,5-a]pyridin-7-yl]-(4-phenyl-3,6-dihydro-2H-pyridin-1-yl)-methanone] | 21.8 | 10.4 | 227
30 | Nc1cc(C(=O)N(Cc2ccccc2)Cc2ccccc2)cc2nc(-c3ccc(Br)o3)nn12 [Example 313, 5-Amino-2-(5-bromo-furan-2-yl)-[1,2,4]triazolo[1,5-a]pyridine-7-carboxylic acid dibenzylamide] | 1.2 | 14.8 | 17.8
